Target: T1, recombinant autotaxin (Homo sapiens, UniProt Q13822)
T1 construct: made in house; host or cells: Hi5 insect cells (baculovirus)
Test: Autotaxin test (enzyme test), Amplex Red fluorescence with LPC substrate
Format: biochemical
Conditions: autotaxin inhibition (enzyme test); for remaining activity at 10 µM: 10 μM compound, read-out: % Control at 10 μM
Protocol: Autotaxin Inhibition (Enzyme Test)
Autotaxin Test (Enzyme Test)
The autotaxin activity is measured indirectly using Amplex Red reagent. Amplex Red is measured here as fluorogenic indicator for the H2O2 formed. In detail, autotaxin converts the substrate lysophosphatidylcholine (LPC) into phosphocholine and lysophosphatidylic acid (LPA). After this reaction, the phosphocholine is reacted with alkaline phosphatase to give inorganic phosphate and choline. In the next step, choline is oxidised by choline oxidase to give betaine, with formation of H2O2. H2O2 reacts with Amplex Red reagent in the presence of peroxidase (horseradish peroxidase) in a 1:1 stoichiometry and forms the highly fluorescent resorufin. The fluorescence is measured in a reaction-dependent kinetic mode in order that fluorescent signals from possible other fluorescent substances which are not involved in the reaction can be corrected out.
3 μl of a standard solution or of the test substances (substances with the name A(n)) in individual concentrations dissolved in 20 mM Hepes pH 7.2 with a maximum of 11% of DMSO are pre-incubated together with 20 μl (19 ng) of highly purified recombinant autotaxin in test buffer in a black microtitre plate provided with 384 wells at 22° C. for 30 min. The reaction is then initiated by addition of 10 μl of L-α-lysophosphatidylcholine (LPC), where the final concentration of LPC is 75 μM. The mixture is incubated at 37° C. for 90 min. After the incubation, Amplex Red reagent, peroxidase (horseradish peroxidase) and choline oxidase is added, and the fluorescence is immediately measured at 612 nm with excitation of 485 nm in a “Tecan Ultra multimode” reader. The activity of autotaxin is calculated indirectly via detection of the H2O2 formed.
• Microtitre plate: PS microplate, 384 wells, small volume, black Corning, Cat#3677 • Protein: recombinant autotaxin (Baculovirale Hi5 Expression) • Substrate: L-α-lysophosphatidylcholine (chicken egg)); Avanti Polar Lipids #830071 P • Standard: C14 LPA, Avanti Polar Lipids, Cat#857120P • Detection reagent: Amplex Red reagent; Invitrogen #A12222; 5 mg dissolved in 1.923 ml of DMSO peroxidase type VI-A (horseradish) from Sigma #P6782; 5 mg dissolved in 7.45 ml of test buffer, choline oxidase; Sigma # C5896; 50 U dissolved in 2.47 ml of test buffer • Detection reagent mix: 1:50 dilution of detection reagent in test buffer • Test buffer: 10 mM Tris HCl, Merck, Cat #1.08219, pH 8, 1 mM; CaCl2×2 H2O, Merck #1.02382

Structure (SMILES)	remaining activity at 10 µM [%]	IC50 [µM]
CCCc1nn(C)cc1C(=O)N1CCN2C(=O)c3cc(-c4ccc(Cl)cc4)ccc3NC(=O)C2C1 (centres unmarked) [Compound A23, 7-(4-Chlorophenyl)-2-(1-methyl-3-propyl-1H-pyrazole-4-carbonyl)-1,3,4,11a-tetrahydro-2H,10H-2,4a,10-triazadibenzo[a,d]cycloheptene-5,11-dione]	54	> 1
CC(C)(C)CCN1CCN2C(=O)c3cc(-c4ccc(Cl)cc4F)ccc3NC(=O)C2C1 (centres unmarked) [Compound A33]	72	> 1
CC(C)(C)CC(=O)N1CCN2C(=O)c3cc(-c4ccc(Cl)nc4)ccc3NC(=O)C2C1 (centres unmarked) [Compound A128, 7-(6-Chloropyridin-3-yl)-2-(3,3-dimethylbutyryl)-1,3,4,11a-tetrahydro-2H,10H-2,4a,10-triaza-dibenzo[a,d]cycloheptene-5,11-dione]	42	> 1
O=C1Nc2ccc(-c3ccc(Cl)cc3)cc2C(=O)N2CCN(C(=O)Cc3ccccc3)CC12 (centres unmarked) [Compound A32, 7-(4-Chlorophenyl)-2-phenylacetyl-1,3,4,11a-tetrahydro-2H,10H-2,4a,10-triazadibenzo[a,d]-cycloheptene-5,11-dione]	76	–
O=C([C@@H]1CCCN1C1CCNCC1)N1CCN2C(=O)c3cc(-c4ccc(Cl)cc4F)ccc3N(CCN3CCOCC3)C(=O)[C@H]2C1 [Compound A153]	21	> 1
COc1ccc(-c2ccc3c(c2)C(=O)N2CCN(C(=O)[C@@H]4CSCN4)C[C@@H]2C(=O)N3)cc1 [Compound B22]	71	–
CC(C)(C)CC(=O)N1CCN2C(=O)c3cc(-c4ccc(Cl)cc4F)ccc3N(CCC3CCNCC3)C(=O)[C@H]2C1 [Compound A157]	2	0.1 to 1
O=C1Nc2ccc(-c3ccc(Cl)cc3)cc2C(=O)N2CCN(C(=O)[C@H](O)C3CCCCC3)CC12 (stereo partly drawn) [Compound A112, 7-(4-Chlorophenyl)-2-((R)-2-cyclohexyl-2-hydroxy-acetyl)-1,3,4,11a-tetrahydro-2H,10H-2,4a,10-triazadibenzo[a,d]cycloheptene-5,11-dione]	5	> 1
CC1(C)SCN[C@@H]1C(=O)N1CCN2C(=O)c3cc(-c4ccc(Cl)cc4F)ccc3NC(=O)C2C1 (stereo partly drawn) [Compound A68, 7-(4-Chloro-2-fluorophenyl)-2-((R)-5,5-dimethyl-thiazolidine-4-carbonyl)-1,3,4,11a-tetrahydro-2H,10H-2,4a,10-triazadibenzo[a,d]cycloheptene-5,11-dione]	-18	0.1 to 1
CC(C)(C)CC(=O)N1CCN2C(=O)c3cc(-c4ccc(Cl)cc4F)ccc3N(CCO)C(=O)[C@@H]2C1 [Compound A160]	2	0.1 to 1
O=C1Nc2ccc(-c3ccc(Cl)cc3F)cc2C(=O)N2CCN(C(=O)[C@@H]3CCCN3C3CCNCC3)C[C@@H]12 [Compound A126, (S)-7-(4-Chloro-2-fluorophenyl)-2-((S)-1-piperidin-4-ylpyrrolidine-2-carbonyl)-1,3,4,11a-tetrahydro-2H,10H-2,4a,10-triazadibenzo[a,d]cycloheptene-5,11-dione]	20	> 1
COC[C@H](N)C(=O)N1CCN2C(=O)c3cc(-c4ccc(Cl)cc4F)ccc3NC(=O)[C@H]2C1 [Compound A124, (R)-2-((S)-2-Amino-3-methoxypropionyl)-7-(4-chloro-2-fluorophenyl)-1,3,4,11a-tetrahydro-2H,10H-2,4a,10-triazadibenzo[a,d]cycloheptene-5,11-dione]	39	> 1
Cn1cc(-c2ccc3c(c2)C(=O)N2CCN(C(=O)CC(C)(C)C)CC2C(=O)N3)cn1 (centres unmarked) [Compound A108, 2-(3,3-Dimethylbutyryl)-7-(1-methyl-1H-pyrazol-4-yl)-1,3,4,11a-tetrahydro-2H,10H-2,4a,10-triaza-dibenzo[a,d]cycloheptene-5,11-dione]	90	–
O=C1Nc2ccc(-c3ccc(Cl)cc3)cc2C(=O)N2CCN(C(=O)c3csc(-c4cccnc4)n3)CC12 (centres unmarked) [Compound A76, 7-(4-Chlorophenyl)-2-(2-pyridin-3-ylthiazole-4-carbonyl)-1,3,4,11a-tetrahydro-2H,10H-2,4a,10-triazadibenzo[a,d]cycloheptene-5,11-dione]	41	> 1
CC(C)(C)[C@H](N)C(=O)N1CCN2C(=O)c3cc(-c4ccc(Cl)cc4F)ccc3NC(=O)C2C1 (stereo partly drawn) [Compound A61, 2-((S)-2-Amino-3,3-dimethylbutyryl)-7-(4-chloro-2-fluorophenyl)-1,3,4,11a-tetrahydro-2H,10H-2,4a,10-triazadibenzo[a,d]cycloheptene-5,11-dione]	-11	> 1
O=C1Nc2ccc(-c3ccccc3F)cc2C(=O)N2CCN(C(=O)CCc3ccccn3)CC12 (centres unmarked) [Compound A20, 7-(2-Fluorophenyl)-2-(3-pyridin-2-ylpropionyl)-1,3,4,11a-tetrahydro-2H,10H-2,4a,10-triaza-dibenzo[a,d]cycloheptene-5,11-dione]	63	> 1
O=C1Nc2ccc(-c3ccc(Cl)cc3)cc2C(=O)N2CCN(C(=O)c3cscn3)CC12 (centres unmarked) [Compound A36, 7-(4-Chlorophenyl)-2-(thiazole-4-carbonyl)-1,3,4,11a-tetrahydro-2H,10H-2,4a,10-triaza-dibenzo[a,d]cycloheptene-5,11-dione]	–	0.1 to 1
O=C1Nc2ccc(-c3ccc(Cl)cc3F)cc2C(=O)N2CCN(C(=O)[C@@H]3CCCN3C3CCCNC3)C[C@H]12 (stereo partly drawn) [Compound A123, (R)-7-(4-Chloro-2-fluorophenyl)-2-((S)-1-piperidin-3-ylpyrrolidine-2-carbonyl)-1,3,4,11a-tetrahydro-2H,10H-2,4a,10-triazadibenzo[a,d]cycloheptene-5,11-dione]	6	0.1 to 1
CC(C)(C)CC(=O)N1CCN2C(=O)c3cc(-c4cc(C(F)(F)F)ccc4F)ccc3NC(=O)C2C1 (centres unmarked) [Compound A83, 2-(3,3-Dimethylbutyryl)-7-(2-fluoro-5-trifluoromethyl-phenyl)-1,3,4,11a-tetrahydro-2H,10H-2,4a,10-triazadibenzo[a,d]cycloheptene-5,11-dione]	81	–
O=C1Nc2ccc(-c3ccc(Cl)cc3)cc2C(=O)N2CCN(C(=O)C(O)c3ccccc3Cl)CC12 (centres unmarked) [Compound A40, 7-(4-Chlorophenyl)-2-[2-(2-chlorophenyl)-2-hydroxyacetyl]-1,3,4,11a-tetrahydro-2H,10H-2,4a,10-triazadibenzo[a,d]cycloheptene-5,11-dione]	48	> 1
CN1CCC(N2C(=O)C3CN(C(=O)CC(C)(C)C)CCN3C(=O)c3cc(-c4ccc(Cl)cc4F)ccc32)CC1 (centres unmarked) [Compound A166]	10	> 1
O=C1Nc2ccc(-c3ccccc3F)cc2C(=O)N2CCN(C(=O)C3CCCC3)C[C@@H]12 [Compound B10]	76	–
O=C1Nc2ccc(-c3ccc(Cl)cc3)cc2C(=O)N2CCN(C(=O)[C@@H]3CSCN3)C[C@H]12 [Compound A5, (R)-7-(4-Chlorophenyl)-2-((R)-thiazolidine-4-carbonyl)-1,3,4,11a-tetrahydro-2H,10H-2,4a,10-triazadibenzo[a,d]cycloheptene-5,11-dione]	–	> 1
O=C1Nc2ccc(-c3ccc(Cl)cc3)cc2C(=O)N2CCN(C(=O)C3CSC(c4ccncc4)N3)CC12 (centres unmarked) [Compound A71, 7-(4-Chlorophenyl)-2-(2-pyridin-4-ylthiazolidine-4-carbonyl)-1,3,4,11a-tetrahydro-2H,10H-2,4a,10-triazadibenzo[a,d]cycloheptene-5,11-dione]	7	> 1
CC(C)(C)CC(=O)N1CCN2C(=O)c3cc(-c4cccc(C(F)(F)F)c4)ccc3NC(=O)C2C1 (centres unmarked) [Compound A87, 2-(3,3-Dimethylbutyryl)-7-(3-trifluoromethylphenyl)-1,3,4,11a-tetrahydro-2H,10H-2,4a,10-triaza-dibenzo[a,d]cycloheptene-5,11-dione]	74	> 1
CC(C)(C)CC(=O)N1CCN2C(=O)c3cc(-c4ccc(Cl)cc4)ccc3NC(=O)C2C1 (centres unmarked) [Compound B26]	–	0.1 to 1

Source: patent US20120115852A1, “HETEROCYCLIC COMPOUNDS AS AUTOTAXIN INHIBITORS” (Merck Patent Gesellschaft Mit Beschrankter Haftung, priority 2009, published 2012)
